What follows are compounds tested on Endogenous Huntingtin Protein (assay: Endogenous Huntingtin Protein Assay (ELISA-based MSD electrochemiluminescence)). Details: Table 1.
Format: cell-based
Method in brief: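 Sandwich MSD electrochemiluminescence immunoassay. Capture used MW1 (expanded polyglutamine) or MAB2166 antibody coated at 1 μg/mL overnight at 4 °C. Samples were bound overnight at 4 °C, then a rabbit monoclonal detection antibody and SULFO-TAG anti-rabbit, each at 0.25 μg/mL, were applied for 1 h at room temperature.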
For CN(c1nc2cnc(-c3cc(F)c4nn(C)cc4c3)cc2s1)[C@@H]1C[C@H]2CC[C@@H](C1)N2C [Compound 241, 6-(7-fluoro-2-methyl-2H-indazol-5-yl)-N-methyl-N-[(3-exo)-8-methyl-8-azabicyclo[3.2.1]oct-3-yl][1,3]thiazolo[4,5-c]pyridin-2-amine], the IC50 was 100 to 500 nM.
CCN1CCC(Oc2nc3c(F)cc(-c4cc(C)c5nc(C)cn5n4)cc3s2)CC1 [Compound 321, 6-{2-[(1-ethylpiperidin-4-yl)oxy]-4-fluoro-1,3-benzothiazol-6-yl}-2,8-dimethylimidazo[1,2-b]pyridazine] was tested, and the IC50 was ≤ 100 nM.
Compound CC1CC(N(C)c2nc3ccc(-c4ccc5nn(C)cc5c4)cc3s2)CCN1 (stereo not shown) [Compound 81, N-methyl-6-(2-methyl-2H-indazol-5-yl)-N-(2-methylpiperidin-4-yl)-1,3-benzothiazol-2-amine] has an IC50 of 100 to 500 nM.
Cn1cc2cc(-c3nc4ncc(C5=CCNCC5)cc4s3)ccc2n1 [Compound 19, 2-(2-methyl-2H-indazol-5-yl)-6-(1,2,3,6-tetrahydropyridin-4-yl)[1,3]thiazolo[4,5-b]pyridine] was tested, and the IC50 was 100 to 500 nM.
With Cc1cc(-c2ccc3nc(N(C)C4CCNC(C)C4)sc3c2)cc2cn(C)nc12 (stereo not shown) [Compound 66, 6-(2,7-dimethyl-2H-indazol-5-yl)-N-methyl-N-(2-methylpiperidin-4-yl)-1,3-benzothiazol-2-amine] the IC50 was ≤ 100 nM.
In the case of CC1CC(N(C)c2nc3cnc(-c4cc(F)c5nn(C)cc5c4)cc3s2)CCN1C (stereo not shown) [Compound 378, N-(1,2-dimethylpiperidin-4-yl)-6-(7-fluoro-2-methyl-2H-indazol-5-yl)-N-methyl[1,3]thiazolo[4,5-c]pyridin-2-amine], the IC50 is reported as 100 to 500 nM.
Cc1nc2c(C)cc(-c3ccc4nc(C5CCNCC5)sc4c3)cc2[nH]1 [Compound 94, 6-(2,4-dimethyl-1H-benzimidazol-6-yl)-2-(piperidin-4-yl)-1,3-benzothiazole] was tested, and the IC50 was ≤ 100 nM.
Cc1cn2cc(-c3cc4sc(N(C)C5CC6CCC(C5)N6)nc4cn3)cc(C#N)c2n1 (stereo not drawn) [Compound 203, 6-{2-[(3-exo)-8-azabicyclo[3.2.1]oct-3-yl(methyl)amino][1,3]thiazolo[4,5-c]pyridin-6-yl}-2-methylimidazo[1,2-a]pyridine-8-carbonitrile] was tested, and the IC50 was ≤ 100 nM.
For CN1CCC2(CC1)CN(c1nc3nnc(-c4ccc(-c5c[nH]nc5F)cc4O)cc3s1)C2 [Compound 392, 5-(3-fluoro-1H-pyrazol-4-yl)-2-[6-(7-methyl-2,7-diazaspiro[3.5]nonan-2-yl)[1,3]thiazolo[4,5-c]pyridazin-3-yl]phenol], the IC50 was 1000 to 3000 nM.
In the case of Cc1cn2cc(-c3cc4sc(N[C@@H]5C[C@H]6CC[C@@H](C5)N6C)nc4cn3)cc(F)c2n1 [Compound 247, 6-(8-fluoro-2-methylimidazo[1,2-a]pyridin-6-yl)-N-[(3-exo)-8-methyl-8-azabicyclo[3.2.1]oct-3-yl][1,3]thiazolo[4,5-c]pyridin-2-amine], the IC50 is reported as 100 to 500 nM.
For Cc1cn2nc(-c3cc(F)c4nc(N5CCCNCC5)sc4c3)cc(C)c2n1 [Compound 121, 6-[2-(1,4-diazepan-1-yl)-4-fluoro-1,3-benzothiazol-6-yl]-2,8-dimethylimidazo[1,2-b]pyridazine], the IC50 was ≤ 100 nM.
In the case of Cc1cn2nc(-c3cc(F)c4nc(N(C)C5CCNCC5)sc4c3)ccc2n1 [Compound 185, 4-fluoro-N-methyl-6-(2-methylimidazo[1,2-b]pyridazin-6-yl)-N-(piperidin-4-yl)-1,3-benzothiazol-2-amine], the IC50 is reported as ≤ 100 nM.
For Cc1cn2cc(-c3ncc4nc(N(C)C5CC(C)(C)NC(C)(C)C5)sc4n3)cc(F)c2n1 [Compound 171, 5-(8-fluoro-2-methylimidazo[1,2-a]pyridin-6-yl)-N-methyl-N-(2,2,6,6-tetramethylpiperidin-4-yl)[1,3]thiazolo[5,4-d]pyrimidin-2-amine], the IC50 was ≤ 100 nM.
For CN(c1nc2cnc(-c3cc(C#N)c4nn(C)cc4c3)cc2s1)[C@@H]1C[C@H]2CC[C@@H](C1)N2C [Compound 238, 2-methyl-5-(2-{methyl[(3-exo)-8-methyl-8-azabicyclo[3.2.1]oct-3-yl]amino}[1,3]thiazolo[4,5-c]pyridin-6-yl)-2H-indazole-7-carbonitrile], the IC50 was ≤ 100 nM.
For Cn1cc2nc(-c3cc(F)c4nc(C5CCNCC5)sc4c3)ccc2n1 [Compound 79, 5-[4-fluoro-2-(piperidin-4-yl)-1,3-benzothiazol-6-yl]-2-methyl-2H-pyrazolo[4,3-b]pyridine], the IC50 was ≤ 100 nM.
In the case of Cc1cn2nc(-c3ccc4nc(N(C)C5CC(C)(C)NC(C)(C)C5)sc4c3)ccc2n1 [Compound 40, N-methyl-6-(2-methylimidazo[1,2-b]pyridazin-6-yl)-N-(2,2,6,6-tetramethylpiperidin-4-yl)-1,3-benzothiazol-2-amine], the IC50 is reported as ≤ 100 nM.
CN(c1nc2ncc(-c3ccc4nn(C)cc4c3)cc2s1)C1CCNCC1 [Compound 12, N-methyl-6-(2-methyl-2H-indazol-5-yl)-N-(piperidin-4-yl)[1,3]thiazolo[4,5-b]pyridine-2-amine] was tested, and the IC50 was 1000 to 3000 nM.
Cc1cn2cc(-c3cc4sc(N(C)C5CC6(C)CCC(C)(C5)N6)nc4cn3)cc(C#N)c2n1 [Compound 285, 6-(2-{[(1R,3s,5S)-1,5-dimethyl-8-azabicyclo[3.2.1]octan-3-yl](methyl)amino}[1,3]thiazolo[4,5-c]pyridin-6-yl)-2-methylimidazo[1,2-a]pyridine-8-carbonitrile] was tested, and the IC50 was ≤ 100 nM.
Compound Oc1cc(-c2c[nH]nc2F)ccc1-c1cc2sc(N3CC4(CCNCC4)C3)nc2nn1 [Compound 341, 2-[6-(2,7-diazaspiro[3.5]nonan-2-yl)[1,3]thiazolo[4,5-c]pyridazin-3-yl]-5-(3-fluoro-1H-pyrazol-4-yl)phenol] has an IC50 of 500 to 1000 nM.
For CN(c1nc2cnc(-c3cc(C#N)c4nn(C)cc4c3)cc2s1)C1CCNCC1 [Compound 214, 2-methyl-5-{2-[methyl(piperidin-4-yl)amino][1,3]thiazolo[4,5-c]pyridin-6-yl}-2H-indazole-7-carbonitrile], the IC50 was ≤ 100 nM.
Cc1cn2cc(-c3cc4sc(N[C@@H]5C[C@H]6CC[C@@H](C5)N6C)nc4cn3)cc(C#N)c2n1 [Compound 245, 2-methyl-6-(2-{[(3-exo)-8-methyl-8-azabicyclo[3.2.1]oct-3-yl]amino][1,3]thiazolo[4,5-c]pyridin-6-yl)imidazo[1,2-a]pyridine-8-carbonitrile] showed an IC50 of 1000 to 3000 nM.
In the case of C[C@H]1C[C@@H](N(C)c2nc3nnc(-c4ccc(-c5cn[nH]c5)cc4O)cc3s2)CCN1C [Compound 395, 2-(6-{[(2S,4S)-1,2-dimethylpiperidin-4-yl](methyl)amino}[1,3]thiazolo[4,5-c]pyridazin-3-yl)-5-(1H-pyrazol-4-yl)phenol], the IC50 is reported as ≤ 100 nM.
Cc1cc(-c2ccc3nc(N(C)C4CCNC(C)(C)C4)sc3c2)cc2cn(C)nc12 (stereo not shown) [Compound 146, 6-(2,7-dimethyl-2H-indazol-5-yl)-N-(2,2-dimethylpiperidin-4-yl)-N-methyl-1,3-benzothiazol-2-amine] showed an IC50 of 100 to 500 nM.
Cc1cn2cc(-c3cc(F)c4nc(N(C)C5CCNCC5)sc4c3)cc(C#N)c2n1 [Compound 226, 6-{4-fluoro-2-[methyl(piperidin-4-yl)amino]-1,3-benzothiazol-6-yl}-2-methylimidazo[1,2-a]pyridine-8-carbonitrile] was tested, and the IC50 was ≤ 100 nM.
Cn1cc2cc(-c3cc4sc(C5CCNCC5)nc4cn3)cc(C(F)(F)F)c2n1 [Compound 60, 6-[2-methyl-7-(trifluoromethyl)-2H-indazol-5-yl]-2-(piperidin-4-yl)[1,3]thiazolo[4,5-c]pyridine] gave an IC50 of 100 to 500 nM.
Cn1cc2cc(-c3cc(Cl)c4nc(C5=CCNCC5)sc4c3)cc(C#N)c2n1 [Compound 154, 5-[4-chloro-2-(1,2,3,6-tetrahydropyridin-4-yl)-1,3-benzothiazol-6-yl]-2-methyl-2H-indazole-7-carbonitrile] was tested, and the IC50 was 1000 to 3000 nM.
In the case of CN(c1nc2ccc(-c3cc(C#N)c4nn(C)cc4c3)nc2s1)C1CC2CCC(C1)N2 (stereo not drawn) [Compound 278, 5-{2-[(3-exo)-8-azabicyclo[3.2.1]oct-3-yl(methyl)amino][1,3]thiazolo[5,4-b]pyridin-5-yl}-2-methyl-2H-indazole-7-carbonitrile], the IC50 is reported as ≤ 100 nM.
Cc1cn2nc(-c3cnc4nc(N(C)C5CC(C)(C)NC(C)(C)C5)sc4n3)ccc2n1 [Compound 141, N-methyl-6-(2-methylimidazo[1,2-b]pyridazin-6-yl)-N-(2,2,6,6-tetramethylpiperidin-4-yl)[1,3]thiazolo[4,5-b]pyrazin-2-amine] was tested, and the IC50 was ≤ 100 nM.
In the case of CN(c1nc2nnc(-c3ccc(-c4c[nH]nc4F)cc3O)cc2s1)C1CCNCC1 [Compound 329, 5-(3-fluoro-1H-pyrazol-4-yl)-2-{6-[methyl(piperidin-4-yl)amino][1,3]thiazolo[4,5-c]pyridazin-3-yl}phenol], the IC50 is reported as ≤ 100 nM.
CCN(c1nc2cnc(-c3cc(F)c4nc(C)cn4c3)nc2s1)C1CC(C)(C)NC(C)(C)C1 [Compound 243, N-ethyl-5-(8-fluoro-2-methylimidazo[1,2-a]pyridin-6-yl)-N-(2,2,6,6-tetramethylpiperidin-4-yl)[1,3]thiazolo[5,4-d]pyrimidin-2-amine] was tested, and the IC50 was 100 to 500 nM.
CN(c1nc2nnc(-c3ccc(-c4cn[nH]c4)cc3O)cc2s1)[C@@H]1CNC[C@@H]1F [Compound 346, 2-(6-{[(3R,4S)-4-fluoropyrrolidin-3-yl](methyl)amino}[1,3]thiazolo[4,5-c]pyridazin-3-yl)-5-(1H-pyrazol-4-yl)phenol] gave an IC50 of 100 to 500 nM.
Compound Oc1cc(-c2cn[nH]c2)ccc1-c1cc2sc(NC3CCNC3)nc2nn1 (stereo not shown) [Compound 367, 5-(1H-pyrazol-4-yl)-2-{6-[(pyrrolidin-3-yl)amino][1,3]thiazolo[4,5-c]pyridazin-3-yl}phenol] has an IC50 of 100 to 500 nM.
Cc1cn2nc(-c3cc(F)c4nc(N(C)C5CCNCC5)sc4c3)cc(C)c2n1 [Compound 186, 6-(2,8-dimethylimidazo[1,2-b]pyridazin-6-yl)-4-fluoro-N-methyl-N-(piperidin-4-yl)-1,3-benzothiazol-2-amine] was tested, and the IC50 was ≤ 100 nM.
CCc1cc(-c2ccc3nc(N(C)C4CC(C)(C)NC(C)(C)C4)sc3c2)cc2cn(C)nc12 [Compound 54, 6-(7-ethyl-2-methyl-2H-indazol-5-yl)-N-methyl-N-(2,2,6,6-tetramethylpiperidin-4-yl)-1,3-benzothiazol-2-amine] showed an IC50 of 100 to 500 nM.
